{
  "source": "patent US8912234B2",
  "about": "“Composition containing resveratrol and/or derivatives thereof and plant oil, process for producing said composition, nutraceutical and/or pharmaceutical product, and method for enhancing the potential of resveratrol” (UNIAO Brasileria de Educacao e Assistencia—Mantenedora da …, priority 2009, dated 2014)",
  "key": {"[1]": {"system": "edema of the paw caused by carrageenan", "test": "Model of acute inflammation by carrageenan in the paw of rats", "type": "in vivo, male Wistar rats", "conditions": "100 mg/kg oral; for inhibition of the edema caused by carrageenan: therapeutic, 120 min after carrageenan, rats (FIG. 5)"}, "edema caused by CFA": {"system": "edema caused by CFA", "test": "Model of polyarthritis induced by CFA in rats", "type": "in vivo, male Wistar rats", "conditions": "100 mg/kg oral, twice a day for 8 days, from day 14 to 21 after CFA; rats (FIG. 7)"}, "[2]": {"system": "edematogenic response caused by CFA", "test": "Paw edema of chronic inflammation induced by CFA in mice", "type": "in vivo, male Swiss mice", "conditions": "100 mg/kg oral, 1x a day for 7 days, starting 1 week after CFA; mice (FIG. 9)", "method": "(§1) To perform the experiments, male Wistar rats (180 to 200 g) or male Swiss mice (25 to 30 g) were used, coming from the animal house of the Federal University of Pelotas (UFPEL; Pelotas, RS). We used 5 to 8 animals per group. The animals were kept in Room 108, located in Block E, of the Vivarium of Building 12, of the PUCRS, on ventilated shelves outfitted with incoming and outgoing air filters (brand Alesco), with controlled temperature (22±1° C.) and light/dark cycle of 12 h (lights turned on at 7:00 a.m.; lights turned off at 7:00 p.m.). Within the shelves, the animals were kept in cages suitable for rodents, filled with pine shavings (changed three times a week). The animals received pelletized ration (brand Nuvilab) and filtered water (filter brand Jojaco) ad libitum. The experiments were conducted in the Applied Pharmacology Laboratory I, located in Block C, Building 12, of the PUCRS. During the experimental procedures, the laboratory temperature was maintained at 22±1° C. […] In this series of experiments, the depressive behavior associated with chronic inflammation in mice was evaluated. […] The increase in volume was measured by plethysmometer, two weeks after the application of the CFA. The difference between the volume of the right and left paws was quantified (in ml) and taken as an indicator of edema. […] The time of immobility was measured for a period of 6 min. […]"}, "[3]": {"system": "depressive behavior associated with the chronic inflammation caused by CFA", "test": "Depressive behavior associated with chronic inflammation in mice (tail suspension, time of immobility)", "type": "in vivo, male Swiss mice", "conditions": "100 mg/kg oral, 1x a day for 7 days, starting 1 week after CFA; immobility over 6 min; mice (FIG. 9)", "method": "as §1"}},
  "data": [
    {"compound": "Oc1ccc(C=Cc2cc(O)cc(O)c2)cc1", "note": "[resveratrol, 3,5,4′-trihydroxystilbene]", "values": [
      {"measurement": "inhibition of the edema of the paw caused by carrageenan", "setting": "[1]; preventive, 30 min prior to carrageenan, vs saline control, rats (FIG. 4)", "value": "31±7", "unit": "%"},
      {"measurement": "inhibition of the edema caused by carrageenan", "setting": "[1]; at 180 min", "value": "35±8", "unit": "%"},
      {"measurement": "inhibition of the edema caused by carrageenan", "setting": "[1]; at 240 min", "value": "45±9", "unit": "%"},
      {"measurement": "inhibition of the formation of edema caused by CFA", "setting": "edema caused by CFA", "value": "17±5", "unit": "%"},
      {"measurement": "percentage of reduction of the edematogenic response caused by CFA", "setting": "[2]", "value": "42±4", "unit": "%"},
      {"measurement": "depressive behavior (time of immobility)", "setting": "[3]", "value": "expressively reduced"}
    ]}
  ]
}
